# Laboratory results from patent US20250000881A1, “TREATMENT OF TREATMENT RESISTANT […] PSILOCYBIN” (COMPASS […], priority 2021, published 2025).
# Assays:
# adult subjects with TRD = assay: Phase 2b randomised double-blind trial in TRD: MADRS total score, response, remission, sustained response; assay type: in vivo, human; conditions: for Protocol-defined sustained response (MADRS response criteria from week 3 until week 12): up to week 12
# Method: Studies with more rigorous designs are needed to better the therapeutic potential of psilocybin in treatment-resistant depression (TRD). The aim of this study was to assess the effectiveness of 3 different doses of psilocybin (1 mg, 10 mg, and 25 mg) in TRD.
# This was a Phase 2b, international multicentre, randomized, fixed dose, double-blind trial. The study population included adult men and women, 18 years of age and older, with TRD. […] Augmentation counts as a second treatment, provided it was approved for the adjunctive treatment of MDD in that country.
# The treatment period was determined the optimal therapeutic dose; 233 subjects were randomised in an approximately 1:1:1 ratio to receive 1 mg psilocybin (79 subjects), 10 mg psilocybin (75 subjects), or 25 mg psilocybin (79 subjects). Average patient baseline MADRS values were 31.9 in the 25 mg group, 33.0 in the 10 mg group, and 32.7 in the 1 mg group. This represents moderate to severe depression (≥31=cut-off for severe depression based on MADRS).
# The primary objective of this study was to evaluate the efficacy of psilocybin (25 mg or 10 mg) compared to 1 mg, administered under supportive conditions to adult subjects with TRD, in improving depressive symptoms, as assessed by the change in the Montgomery-Asberg Depression Rating Scale (MADRS) total score from baseline. Baseline is defined as the assessment score obtained on Day-1. The primary time point is week 3; this variable was analyzed for the change from Baseline to day 1, and weeks 1, 3, 6, 9, and 12 of the study.
# Additional objectives of this study were to assess the efficacy of psilocybin compared to 1 mg psilocybin on the: • (a) proportion of subjects with response defined as a ≥50% decrease in MADRS total score from baseline to week 3. This was assessed at day 1 and at weeks 1, 6, 9, and 12 of the study. • (b) proportion of subjects who have a sustained response at week 12. Sustained response is defined as the proportion of patients fulfilling response criteria at any visit up to and including week 3, that also fulfils response criteria at all subsequent visits up to and including week 12. Response is defined as ≥50% decrease in MADRS total score from baseline.
# Subjects were randomized to the appropriate therapy after it was confirmed at baseline (Visit 2) that the subject remained eligible to participate in the study. Randomization was stratified by country. Each subject was assigned 1 treatment bottle containing 5 capsules packaged in a double-blind fashion, depending on the randomized treatment arm, the bottle will contain 1 of the following: • (a) 10-mg treatment bottle: 2×5-mg capsules and 3×placebo capsules; • (b) 25-mg treatment bottle: 5×5-mg capsules; or • (c) 1-mg treatment bottle: 1×1-mg capsule and 4×placebo capsules.
# The change from baseline in MADRS total score at week 3 will be evaluated with a mixed effects model for repeated measures analysis. The model includes treatment, visit, study site, prior psychedelic experience, treatment by visit interaction, subject as a random effect, and baseline MADRS total score. Comparison of the psilocybin optimal dose versus 1 mg psilocybin was performed at the 0.05 testing level. A sensitivity analysis was performed on the primary mixed model repeated measures model adding treatment by study site or country interaction into the model. If it was significant (at the 10% level), then further investigations of sites were performed.
# […] additional efficacy endpoints that are dichotomous variables (proportion of subjects who are responders, remitters, and sustained responders) were analyzed using the Cochran Mantel Haenszel chi square test, stratified by country, to compare the psilocybin optimal therapeutic dose versus 1 mg psilocybin. A stepdown procedure to correct for multiplicity was employed. […]
# [1] = system: participants with TRD from Example 2; assay: Long term follow-up study: MADRS responders, remitters, sustained responders to week 52; assay type: in vivo, human
# Method: The following example is a long term follow up of study of a sustained responder population from Example 2. 58 participants from Example 2 were selected for a long term 52 week follow up study. Of the 58 patients, 22 received a 25 mg dose of psilocybin, 19 received a 10 mg dose of psilocybin, and 17 received a 1 mg dose of psilocybin. […] None of the patients in this study received treatment for depression before their week 12 MADRS visit in Example 2. Patients were analyzed for a change in MADRS total score from Baseline to 12, 16, 20, 24, 28, 40, and 52 weeks.
# The secondary endpoint of this study was to determine the change in MADRS total score from Baseline to 12, 16, 20, 24, 28, 40, and 52 weeks post treatment. […] Note, “n*” changed to account for subjects that dropped out the long term study.
smiles,measurement,setting,value
"CN(C)CCc1c[nH]c2cccc(OP(=O)(O)O)c12 [COMP360, psilocybin]","MADRS total score change from baseline, LS mean","adult subjects with TRD; 1 mg (N = 79), Day 2",−9.0
same,"MADRS total score change from baseline, LS mean","adult subjects with TRD; 1 mg (N = 79), Week 1",−6.8
same,"MADRS total score change from baseline, LS mean","adult subjects with TRD; 1 mg (N = 79), Week 3",−5.5
same,"MADRS total score change from baseline, LS mean","adult subjects with TRD; 1 mg (N = 79), Week 6",−6.3
same,"MADRS total score change from baseline, LS mean","adult subjects with TRD; 1 mg (N = 79), Week 9",−5.4
same,"MADRS total score change from baseline, LS mean","adult subjects with TRD; 1 mg (N = 79), Week 12",−6.0
same,Sustained response (MADRS response at week 3 and week 12 and at least one of week 6 and week 9),adult subjects with TRD; 1 mg group,10.1%
same,Protocol-defined sustained response (MADRS response criteria from week 3 until week 12),adult subjects with TRD; 1 mg group,10.1%
same,"MADRS total score change from baseline, LS mean","adult subjects with TRD; 10 mg (N = 75), Day 2",−12.0
same,"MADRS total score change from baseline, LS mean","adult subjects with TRD; 10 mg (N = 75), Week 1",−9.1
same,"MADRS total score change from baseline, LS mean","adult subjects with TRD; 10 mg (N = 75), Week 3",−7.9
same,"MADRS total score change from baseline, LS mean","adult subjects with TRD; 10 mg (N = 75), Week 6",−6.0
same,"MADRS total score change from baseline, LS mean","adult subjects with TRD; 10 mg (N = 75), Week 9",−6.1
same,"MADRS total score change from baseline, LS mean","adult subjects with TRD; 10 mg (N = 75), Week 12",−5.7
same,"MADRS total score change from baseline, LS mean diff vs 1 mg","adult subjects with TRD; 10 mg vs 1 mg, Day 2",−3.0
same,"MADRS total score change from baseline, LS mean diff vs 1 mg","adult subjects with TRD; 10 mg vs 1 mg, Week 1",−2.2
same,"MADRS total score change from baseline, LS mean diff vs 1 mg","adult subjects with TRD; 10 mg vs 1 mg, Week 3",−2.4
same,"MADRS total score change from baseline, LS mean diff vs 1 mg","adult subjects with TRD; 10 mg vs 1 mg, Week 6",0.3
same,"MADRS total score change from baseline, LS mean diff vs 1 mg","adult subjects with TRD; 10 mg vs 1 mg, Week 9",−0.7
same,"MADRS total score change from baseline, LS mean diff vs 1 mg","adult subjects with TRD; 10 mg vs 1 mg, Week 12",0.3
same,"MADRS total score change from baseline, LS mean","adult subjects with TRD; 25 mg (N = 79), Day 2",−15.0
same,"MADRS total score change from baseline, LS mean","adult subjects with TRD; 25 mg (N = 79), Week 1",−13.1
same,"MADRS total score change from baseline, LS mean","adult subjects with TRD; 25 mg (N = 79), Week 3",−12.0
same,"MADRS total score change from baseline, LS mean","adult subjects with TRD; 25 mg (N = 79), Week 6",−11.7
same,"MADRS total score change from baseline, LS mean","adult subjects with TRD; 25 mg (N = 79), Week 9",−9.4
same,"MADRS total score change from baseline, LS mean","adult subjects with TRD; 25 mg (N = 79), Week 12",−9.6
same,Sustained response (MADRS response at week 3 and week 12 and at least one of week 6 and week 9),adult subjects with TRD; 25 mg group,24.1%
same,Protocol-defined sustained response (MADRS response criteria from week 3 until week 12),adult subjects with TRD; 25 mg group,20.3%
same,"MADRS total score change from baseline, LS mean diff vs 1 mg","adult subjects with TRD; 25 mg vs 1 mg, Day 2",−5.9
same,"MADRS total score change from baseline, LS mean diff vs 1 mg","adult subjects with TRD; 25 mg vs 1 mg, Week 1",−6.3
same,"MADRS total score change from baseline, LS mean diff vs 1 mg","adult subjects with TRD; 25 mg vs 1 mg, Week 3 (primary endpoint)",−6.6
same,"MADRS total score change from baseline, LS mean diff vs 1 mg","adult subjects with TRD; 25 mg vs 1 mg, Week 6",−5.3
same,"MADRS total score change from baseline, LS mean diff vs 1 mg","adult subjects with TRD; 25 mg vs 1 mg, Week 9",−4.0
same,"MADRS total score change from baseline, LS mean diff vs 1 mg","adult subjects with TRD; 25 mg vs 1 mg, Week 12",−3.6
same,MADRS remitters (MADRS total score≤10),"[1]; 1 mg (N = 17), Week 3",0/11
same,MADRS remitters (MADRS total score≤10),"[1]; 1 mg (N = 17), Week 9",0/8
same,MADRS relaxed sustained responders,"[1]; 1 mg (N = 17), Week 12",0/7
same,MADRS remitters (MADRS total score≤10),"[1]; 1 mg (N = 17), Week 12",0/7
same,MADRS sustained responders (response at Week 3 and all subsequent visits),"[1]; 1 mg (N = 17), Week 12",0/7
same,MADRS relaxed sustained responders,"[1]; 1 mg (N = 17), Week 16",0/5
same,MADRS remitters (MADRS total score≤10),"[1]; 1 mg (N = 17), Week 16",0/5
same,MADRS responders (≥50% reduction from baseline in MADRS total score),"[1]; 1 mg (N = 17), Week 16",0/5
same,MADRS sustained responders (response at Week 3 and all subsequent visits),"[1]; 1 mg (N = 17), Week 16",0/5
same,MADRS relaxed sustained responders,"[1]; 1 mg (N = 17), Week 20",0/4
same,MADRS remitters (MADRS total score≤10),"[1]; 1 mg (N = 17), Week 20",0/4
same,MADRS sustained responders (response at Week 3 and all subsequent visits),"[1]; 1 mg (N = 17), Week 20",0/4
same,MADRS sustained responders (response at Week 3 and all subsequent visits),"[1]; 1 mg (N = 17), Week 24",0/4
same,MADRS relaxed sustained responders,"[1]; 1 mg (N = 17), Week 28",0/4
same,MADRS remitters (MADRS total score≤10),"[1]; 1 mg (N = 17), Week 28",0/4
same,MADRS sustained responders (response at Week 3 and all subsequent visits),"[1]; 1 mg (N = 17), Week 28",0/4
same,MADRS relaxed sustained responders,"[1]; 1 mg (N = 17), Week 40",0/4
same,MADRS sustained responders (response at Week 3 and all subsequent visits),"[1]; 1 mg (N = 17), Week 40",0/4
same,MADRS relaxed sustained responders,"[1]; 1 mg (N = 17), Week 52",0/4
same,MADRS remitters (MADRS total score≤10),"[1]; 1 mg (N = 17), Week 52",0/4
same,MADRS responders (≥50% reduction from baseline in MADRS total score),"[1]; 1 mg (N = 17), Week 52",0/4
same,MADRS sustained responders (response at Week 3 and all subsequent visits),"[1]; 1 mg (N = 17), Week 52",0/4
same,MADRS remitters (MADRS total score≤10),"[1]; 10 mg (N = 19), Week 16",0/5
same,MADRS relaxed sustained responders,"[1]; 10 mg (N = 19), Week 20",0/3
same,MADRS sustained responders (response at Week 3 and all subsequent visits),"[1]; 10 mg (N = 19), Week 20",0/3
same,MADRS sustained responders (response at Week 3 and all subsequent visits),"[1]; 10 mg (N = 19), Week 24",0/3
same,MADRS sustained responders (response at Week 3 and all subsequent visits),"[1]; 10 mg (N = 19), Week 28",0/4
same,MADRS sustained responders (response at Week 3 and all subsequent visits),"[1]; 10 mg (N = 19), Week 40",0/5
same,MADRS sustained responders (response at Week 3 and all subsequent visits),"[1]; 10 mg (N = 19), Week 52",0/5
same,MADRS relaxed sustained responders,"[1]; 25 mg (N = 22), Week 40",0/6
same,MADRS remitters (MADRS total score≤10),"[1]; 25 mg (N = 22), Week 40",0/6
same,MADRS sustained responders (response at Week 3 and all subsequent visits),"[1]; 25 mg (N = 22), Week 40",0/6
same,MADRS remitters (MADRS total score≤10),"[1]; 25 mg (N = 22), Week 52",0/6
same,MADRS sustained responders (response at Week 3 and all subsequent visits),"[1]; 25 mg (N = 22), Week 52",0/6
